# Measurements reported in paper PMC12281424, “A Rac-specific competitive inhibitor of guanine nucleotide binding reduces metastasis in triple-negative breast cancer” (Cell Reports Medicine, 2025).
# Tests used:
# Type in all cases: biochemical
# JNK3(h) = JNK3(h) (Homo sapiens, UniProt P53779); assay: Kinase Profiler
# Description: (§1) The kinase profiler was performed by the company Eurofins (Discovery, Panlab and Cerep).
# Ron(h) = Ron(h) (Homo sapiens, UniProt Q04912); assay: Kinase Profiler
# Description: (§2) Blood cell counts, kinase profiler, safety screen, bacterial cytotoxicity, Ames, micronucleus assays were performed by the company Eurofins (France). The kinase profiler was performed by the company Eurofins (Discovery, Panlab and Cerep).
# cKit(V560G)(h) = cKit(V560G)(h) (Homo sapiens, UniProt P10721, V560G); assay: Kinase Profiler
# Description: as §2
# DNA-PK(h) = DNA-PK(h) (Homo sapiens, UniProt P78527); assay: Kinase Profiler
# Description: as §1
# [1] = molecular target: PI3K (p110a(E545K)/p85a)(m) (Mus musculus, UniProt P42337, E545K); assay: Kinase Profiler
# Sequence of PI3K (p110a(E545K)/p85a)(m) (P42337 whole entry E545K): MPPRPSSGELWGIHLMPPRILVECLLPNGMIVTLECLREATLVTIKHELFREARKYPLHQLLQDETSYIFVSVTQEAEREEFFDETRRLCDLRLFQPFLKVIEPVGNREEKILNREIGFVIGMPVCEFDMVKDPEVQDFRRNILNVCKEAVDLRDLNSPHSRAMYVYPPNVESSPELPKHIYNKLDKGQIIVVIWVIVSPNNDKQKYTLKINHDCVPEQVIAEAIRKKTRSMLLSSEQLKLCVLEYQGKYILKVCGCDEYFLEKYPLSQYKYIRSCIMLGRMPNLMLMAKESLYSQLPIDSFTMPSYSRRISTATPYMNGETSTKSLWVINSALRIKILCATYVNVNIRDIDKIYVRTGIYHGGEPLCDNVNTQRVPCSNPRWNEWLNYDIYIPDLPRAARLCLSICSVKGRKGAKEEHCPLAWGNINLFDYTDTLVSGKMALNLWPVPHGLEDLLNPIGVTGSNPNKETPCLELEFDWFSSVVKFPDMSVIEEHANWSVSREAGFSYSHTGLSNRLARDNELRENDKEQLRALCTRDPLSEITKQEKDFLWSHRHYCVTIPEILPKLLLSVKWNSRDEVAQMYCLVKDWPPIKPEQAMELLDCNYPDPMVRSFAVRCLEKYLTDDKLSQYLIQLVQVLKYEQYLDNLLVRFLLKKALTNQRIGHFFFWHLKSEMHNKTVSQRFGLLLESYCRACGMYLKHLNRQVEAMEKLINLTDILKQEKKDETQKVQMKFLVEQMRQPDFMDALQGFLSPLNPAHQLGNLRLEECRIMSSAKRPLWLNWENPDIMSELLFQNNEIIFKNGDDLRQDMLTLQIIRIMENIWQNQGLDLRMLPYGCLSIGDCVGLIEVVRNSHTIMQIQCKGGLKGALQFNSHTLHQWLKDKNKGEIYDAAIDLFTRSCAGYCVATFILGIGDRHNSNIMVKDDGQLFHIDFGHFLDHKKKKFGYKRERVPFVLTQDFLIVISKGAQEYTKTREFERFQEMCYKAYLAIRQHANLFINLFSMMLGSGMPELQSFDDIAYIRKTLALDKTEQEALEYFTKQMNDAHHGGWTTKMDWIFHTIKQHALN
# Sequence of PI3K (p110a(E545K)/p85a)(m) (P26450 2-724 partner): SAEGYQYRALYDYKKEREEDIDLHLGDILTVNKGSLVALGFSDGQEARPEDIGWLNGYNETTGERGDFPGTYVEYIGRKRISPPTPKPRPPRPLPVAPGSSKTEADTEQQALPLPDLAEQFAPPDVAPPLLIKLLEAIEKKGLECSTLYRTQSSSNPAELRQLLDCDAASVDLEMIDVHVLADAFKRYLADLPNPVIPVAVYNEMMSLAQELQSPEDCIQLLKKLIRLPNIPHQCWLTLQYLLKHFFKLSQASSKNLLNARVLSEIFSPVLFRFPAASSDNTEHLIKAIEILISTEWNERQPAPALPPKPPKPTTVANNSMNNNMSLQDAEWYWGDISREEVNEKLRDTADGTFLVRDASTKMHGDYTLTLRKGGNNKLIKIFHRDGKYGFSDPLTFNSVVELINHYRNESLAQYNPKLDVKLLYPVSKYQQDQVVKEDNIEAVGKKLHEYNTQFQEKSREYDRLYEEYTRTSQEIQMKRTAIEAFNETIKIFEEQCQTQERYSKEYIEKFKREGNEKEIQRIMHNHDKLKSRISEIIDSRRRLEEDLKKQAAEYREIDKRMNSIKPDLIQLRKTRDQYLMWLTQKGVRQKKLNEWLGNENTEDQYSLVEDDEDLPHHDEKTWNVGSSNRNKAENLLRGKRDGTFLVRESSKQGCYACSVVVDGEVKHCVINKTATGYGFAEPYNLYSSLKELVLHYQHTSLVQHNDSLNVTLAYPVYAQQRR
# Description: as §2
# IKKε(h) = IKKε(h) (Homo sapiens, UniProt Q14164); assay: Kinase Profiler
# Description: as §2
# MKK4(m) = MKK4(m) (Mus musculus, UniProt P47809); assay: Kinase Profiler
# Sequence of MKK4(m) (P47809 2-397 limits assumed): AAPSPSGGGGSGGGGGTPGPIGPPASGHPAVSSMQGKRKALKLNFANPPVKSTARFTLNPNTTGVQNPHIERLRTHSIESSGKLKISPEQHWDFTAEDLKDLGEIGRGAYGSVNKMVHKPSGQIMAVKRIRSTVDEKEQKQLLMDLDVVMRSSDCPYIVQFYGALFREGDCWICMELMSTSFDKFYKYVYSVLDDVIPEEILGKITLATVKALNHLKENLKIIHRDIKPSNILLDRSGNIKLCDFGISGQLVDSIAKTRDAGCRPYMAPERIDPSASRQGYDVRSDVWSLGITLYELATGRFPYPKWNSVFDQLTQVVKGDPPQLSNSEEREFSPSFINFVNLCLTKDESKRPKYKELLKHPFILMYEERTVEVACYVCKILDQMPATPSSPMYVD
# Description: as §1
# PRP4(h) = PRP4(h) (Homo sapiens, UniProt Q13523); assay: Kinase Profiler
# Description: as §1
# RHOA = RHOA (Homo sapiens, UniProt P61586); assay: GEF-stimulated nucleotide exchange; parameters: Full-length RAC2, RHOG, RHOA and CDC42 were purified as previously described; made in house; p115RhoGEF DH-PH in insect cells (Sf21); conditions: 10^-5 M
# Description: Figure 4 A41 selectively impairs RAC protein activation (A) Representative surface plasmon resonance (SPR) sensograms of binding of immobilized RHOA or CDC42 with indicated increasing concentrations of A41 (N > 3). (B) Effect of A41 on GEF-stimulated RAC2, RHOG, RHOA, and CDC42 nucleotide exchange. […] Kobs is expressed as mean ± SEM. ∗p < 0.001 vs. control. (C) Effect of A41 on RAC1 G30S activation. […] The GEF TRIO was used to induce nucleotide exchange (N = 3). Data are expressed as mean ± SEM. (D) Immunoblot analysis and associated quantification of RAC-GTP level and total RAC expression in NIH-3T3 fibroblasts expressing RAC wild-type (RAC1 WT) or RAC1 oncomutants (RAC1 P29S and RAC1b) in the absence (Ctrl) and presence of A41 (10 μM). RAC activation was measured as the ratio of RAC-GTP to total RAC and expressed relative to Ctrl condition. Data are presented as mean ± SEM. ∗∗∗p < 0.001 vs. controls.
# Full-length RAC1 carrying a 6xHis tag in C-terminus was purified as previously described.[64] […] Specific exchange activity toward RHOA determined by fluorescence kinetics is 0.04 s^−1M^−1.
# Nucleotide exchange kinetics were measured by recording the increase in fluorescence following the association of mant-GTP on GDP-bound RHO protein or the decay in fluorescence following the dissociation of mant-GDP pre-loaded onto the RHO protein (λEx = 360 nm, λEm = 440 nm) as previously described.[39] […]
# SAPK2b(h) = SAPK2b(h) (Homo sapiens, UniProt Q15759); assay: Kinase Profiler
# Sequence of SAPK2b(h) (Q15759 whole entry): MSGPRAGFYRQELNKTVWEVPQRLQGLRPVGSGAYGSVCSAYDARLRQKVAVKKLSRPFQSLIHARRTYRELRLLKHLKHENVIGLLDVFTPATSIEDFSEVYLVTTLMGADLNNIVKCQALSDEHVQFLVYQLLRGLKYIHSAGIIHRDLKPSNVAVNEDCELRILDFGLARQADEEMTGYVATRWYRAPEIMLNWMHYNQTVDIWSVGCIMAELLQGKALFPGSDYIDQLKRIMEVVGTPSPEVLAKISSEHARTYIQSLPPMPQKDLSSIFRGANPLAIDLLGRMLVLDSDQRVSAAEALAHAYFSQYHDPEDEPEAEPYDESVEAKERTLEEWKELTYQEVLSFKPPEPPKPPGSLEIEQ
# Description: as §1
# MEKK3(h) = MEKK3(h) (Homo sapiens, UniProt Q99759); assay: Kinase Profiler
# Description: as §1
# HIPK1(h) = HIPK1(h) (Homo sapiens, UniProt Q86Z02); assay: Kinase Profiler
# Description: as §1
# PKCβI(h) = PKCβI(h) (Homo sapiens, UniProt P05771); assay: Kinase Profiler
# Description: as §1
# ROCK-II(r) = ROCK-II(r) (Rattus norvegicus, UniProt Q62868); assay: Kinase Profiler
# Sequence of ROCK-II(r) (Q62868 2-543 limits assumed): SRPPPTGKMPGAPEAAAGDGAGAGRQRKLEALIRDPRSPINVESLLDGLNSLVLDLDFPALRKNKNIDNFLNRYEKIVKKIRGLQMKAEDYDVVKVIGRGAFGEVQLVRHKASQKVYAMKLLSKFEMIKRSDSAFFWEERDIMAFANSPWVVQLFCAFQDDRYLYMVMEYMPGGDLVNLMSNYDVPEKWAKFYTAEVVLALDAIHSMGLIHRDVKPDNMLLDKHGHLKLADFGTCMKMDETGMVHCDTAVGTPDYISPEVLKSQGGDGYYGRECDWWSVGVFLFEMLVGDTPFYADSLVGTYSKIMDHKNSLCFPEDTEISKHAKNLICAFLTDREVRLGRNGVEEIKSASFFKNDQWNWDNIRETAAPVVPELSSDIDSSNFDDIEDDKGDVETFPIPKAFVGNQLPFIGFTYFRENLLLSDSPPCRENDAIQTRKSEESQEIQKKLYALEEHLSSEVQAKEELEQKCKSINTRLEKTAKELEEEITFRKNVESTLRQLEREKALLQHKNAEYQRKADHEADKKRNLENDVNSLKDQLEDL
# Description: as §2
# ASK1(h) = ASK1(h) (Homo sapiens, UniProt Q99683); assay: Kinase Profiler
# Description: as §2
# Sequence of Ron(h) (Q04912 25-1400): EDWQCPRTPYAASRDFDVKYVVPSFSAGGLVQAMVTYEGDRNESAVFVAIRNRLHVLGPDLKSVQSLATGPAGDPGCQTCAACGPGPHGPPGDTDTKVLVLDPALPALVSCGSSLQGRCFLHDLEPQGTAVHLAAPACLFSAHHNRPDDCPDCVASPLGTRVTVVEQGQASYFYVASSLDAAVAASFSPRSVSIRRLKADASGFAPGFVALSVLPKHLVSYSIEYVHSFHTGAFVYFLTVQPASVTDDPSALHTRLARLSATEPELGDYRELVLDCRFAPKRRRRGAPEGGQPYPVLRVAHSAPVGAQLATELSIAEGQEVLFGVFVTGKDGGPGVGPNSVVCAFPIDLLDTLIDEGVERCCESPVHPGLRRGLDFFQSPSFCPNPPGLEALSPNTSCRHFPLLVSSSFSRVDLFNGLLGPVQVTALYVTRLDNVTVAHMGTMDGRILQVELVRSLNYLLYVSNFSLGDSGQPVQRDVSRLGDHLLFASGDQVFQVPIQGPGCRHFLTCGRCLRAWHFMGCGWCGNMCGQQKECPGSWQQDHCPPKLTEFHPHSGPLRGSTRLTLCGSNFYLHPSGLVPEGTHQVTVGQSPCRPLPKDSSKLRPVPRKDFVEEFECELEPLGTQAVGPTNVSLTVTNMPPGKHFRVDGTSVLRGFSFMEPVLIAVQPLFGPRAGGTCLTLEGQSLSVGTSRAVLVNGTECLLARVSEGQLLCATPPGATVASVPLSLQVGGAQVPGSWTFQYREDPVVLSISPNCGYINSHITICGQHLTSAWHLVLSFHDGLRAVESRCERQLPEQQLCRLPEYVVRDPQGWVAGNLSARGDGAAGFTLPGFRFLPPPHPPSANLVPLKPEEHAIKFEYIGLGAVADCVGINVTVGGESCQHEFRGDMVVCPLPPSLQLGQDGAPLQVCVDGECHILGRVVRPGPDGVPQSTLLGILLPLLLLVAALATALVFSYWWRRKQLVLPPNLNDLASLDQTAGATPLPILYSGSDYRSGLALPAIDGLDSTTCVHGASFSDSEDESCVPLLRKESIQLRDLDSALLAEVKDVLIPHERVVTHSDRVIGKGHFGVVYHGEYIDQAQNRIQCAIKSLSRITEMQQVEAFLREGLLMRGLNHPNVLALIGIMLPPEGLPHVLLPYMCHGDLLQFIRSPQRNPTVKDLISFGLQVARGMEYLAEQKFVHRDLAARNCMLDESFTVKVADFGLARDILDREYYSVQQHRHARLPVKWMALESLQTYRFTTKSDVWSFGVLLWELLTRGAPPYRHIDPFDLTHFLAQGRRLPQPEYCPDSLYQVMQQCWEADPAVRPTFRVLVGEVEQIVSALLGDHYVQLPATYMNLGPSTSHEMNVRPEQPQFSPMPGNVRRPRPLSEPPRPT
# Sequence of JNK3(h) (P53779 whole entry): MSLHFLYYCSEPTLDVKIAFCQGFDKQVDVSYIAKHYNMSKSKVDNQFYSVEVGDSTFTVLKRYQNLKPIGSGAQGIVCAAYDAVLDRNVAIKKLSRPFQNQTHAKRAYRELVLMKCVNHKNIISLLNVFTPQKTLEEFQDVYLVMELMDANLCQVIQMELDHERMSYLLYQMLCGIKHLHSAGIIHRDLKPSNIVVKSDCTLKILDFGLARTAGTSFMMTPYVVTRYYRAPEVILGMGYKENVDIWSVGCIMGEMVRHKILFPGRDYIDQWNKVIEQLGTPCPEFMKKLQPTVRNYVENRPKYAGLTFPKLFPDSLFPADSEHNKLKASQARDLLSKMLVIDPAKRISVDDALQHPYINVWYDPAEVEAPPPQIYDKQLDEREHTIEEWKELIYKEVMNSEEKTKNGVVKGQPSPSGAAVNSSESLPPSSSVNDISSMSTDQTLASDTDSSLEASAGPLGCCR
smiles,measurement,setting,value
COc1ccc(OC)c(NS(=O)(=O)c2ccc(NC(=O)CCSc3ccc(C)cc3)cc2)c1 [Compound A41],Activity(%),JNK3(h),123%
same,Activity(%),Ron(h),110%
same,Activity(%),cKit(V560G)(h),115%
same,Activity(%),DNA-PK(h),122%
same,Activity(%),[1],100%
same,Activity(%),IKKε(h),106%
same,Activity(%),MKK4(m),109%
same,Activity(%),PRP4(h),110%
same,activation of RHOA induced by p115RhoGEF DH-PH,RHOA,did not change the activation
same,Activity(%),SAPK2b(h),107%
same,Activity(%),MEKK3(h),109%
same,Activity(%),HIPK1(h),110%
same,Activity(%),PKCβI(h),98%
same,Activity(%),ROCK-II(r),110%
same,Activity(%),ASK1(h),94%
